# Reference: US9095541B2, “Brain tumor targeting peptides and methods” (Arch Cancer Therapeutics, Inc., priority 2009, dated 2015)
# “Also recorded” adds a separate entry of the source.
# Legend:
# U87R cells = test: Subtractive/selective biopanning of Ph.D.-12 phage display library against U87R cells, sequencing of subclones; parameters: species or system human; settings: given as n/100
# Description: The present inventors have earlier described an in vivo selection for a population of human glioma cells that were highly invasive (U87R). In order to isolate peptides that could bind specifically to these highly invasive glioma cells, a biopanning experiment using a combinatorial phage display library was employed. Initially subtractive biopanning was performed with the U87 cells that were non-invasive (U87T) followed by selective biopanning with the U87R cells to isolate a library of phage (FIG. 1A) that were confirmed to preferentially interact with U87R cells by whole-cell ELISA (FIG. 1B).
# Biopanning was performed as described in [61]. Subtraction cells (e.g. U87T) were released from tissue culture plastic with Puck's EDTA, and after washing with PBS, 1×10^7 cells were resuspended in 1% BSA in PBS with 1.5×10^11 pfu of Ph.D.-12 M13 Phage Library (New England Biolabs). The cells and phage were incubated in an eppendorf tube for 1 hour at room temperature with gentle shaking, before pelleting the cells and retaining the supernatant, which was transferred to a fresh tube with another aliquot of subtraction cells. The incubation and transfer of supernatant was performed three times, with the supernatant being transferred to an empty tube on the last round. Selection cells were released from tissue culture plastic with Puck's EDTA (e.g. U87R cells) and washed in PBS. 5×10^6 cells were resuspended in the 3× subtracted supernatant and incubated for 4 hours at 4° C. with slow shaking. The cell pellet was washed 5× in cold 1% BSA/0.1% Tween 20 in PBS five times, changing the tube after each wash. Bound phage were eluted by rocking the cells gently for 10 minutes at 4° C. in 1 mL of 0.2M Glycine-HCl pH 2.2 with 1 mg/mL BSA, and the supernatant was immediately neutralized with 150 μL of 1M Tris-HCl pH 9.1. The final library was amplified as per manufacturer's protocol.
# [1] = test system: BTIC isolates (BTIC 12, 25, 42, 50); test: Biopanning of phage display library against a mixture of BTIC isolates, sequencing of subclones; settings: BTIC-binding phage subclones; given as n/50 subclones screened
# [2] = test system: implanted GBM tumor from the BT025 cell line; test: In vivo targeting of fluorescent peptide to implanted BT025 tumor, fluorescence microscopy of brain sections; parameters: species or system mice; settings: for distribution of fluorescent peptide signal in brain sections: BT025 tumor; for localization of peptide conjugate in human GBM tissue in vivo (summary): intravenous administration, BT025 tumor (general statements also cover U87MG tumors)
# Description: (§1) In the studies shown in FIGS. 13A and 13B, brain tumors were implanted in mice with a patient-derived BTIC cell line BT025 identified as above by its binding to the 7A peptide. After tumor growth from the implanted cells, the tumors were removed, sectioned and stained for microscopic visualization. In the studies shown in FIGS. 14-19, a fluorescent peptide was administered intravenously, either by intracorotid injection or via tail vein into mice having an implanted GBM tumor from the BT025 cell line (FIGS. 14-17) or the U87MG cell line (FIGS. 18 and 19), and after localization of the peptide, the animal were sacrificed and their brain tumors removed for sectioning and visualization by fluorescence microscopy.
# The peptide was administered to the mouse via intracarotid injection and allowed to circulate for approximately half an hour to allow clearance of background signal before the mouse was sacrificed and the brain removed for imaging using an Olympus OV100 whole mouse imaging system. By non-magnified inspection, the large outgrowth of the tumor is obvious.
# FIGS. 14B and 14C are lower and higher magnification photomicrographs of a thin section taken from the brain in FIG. 14A after it was bisected close to the tumor implantation site and stained for human nuclear antigen (green) and total DNA (blue) to outline the positioning of the cells. The red peptide signal is visible on cells immediately adjacent to the main tumor mass as well as spread diffusely in the surrounding tissue.
# [3] = test system: BTIC lines (neurospheres); test: Staining with biotin-labeled synthetic peptide, confocal, BTIC neurospheres; type: binding, human; settings: neurospheres stained in suspension
# Description: (§2) Binding specificity of the 7A peptide was assessed with non-target (U87MG; NSC) and target (BTIC) cells using a biotinylated 7A peptide (red) followed by confocal imaging.
# (§3) To confirm the preferential binding of 7A to the BTICs rather than the cells used for subtraction, neurospheres and U87MG cells were stained in suspension with biotin-labeled synthetic peptide. […] Examination of the interaction of all selected peptides across a panel of BTIC lines underscored the heterogeneity within each cell population, and established a platform for correlating the ability to bind particular peptide sequences with either cell behavior or patient outcome.
# (§4) Adherent cells: 13 mm coverslips were coated with neutralized 3 mg/mL Collagen I (PureCol), allowed to dry, then plated with test cells at 1×10^4/mL, 0.5 mL volume and allowed to equilibrate 20 minutes under normal culture conditions. Coverslips were fixed for 10 minutes in 3% formaldehyde in PBS, washed, then incubated in biotinylated peptide (3 mM stock) or primary antibody at a 1:100 dilution in 2% BSA/0.02% Tween 20 in PBS for 1 hour at room temperature. After washing in PBS, secondary antibody or streptavidin-Alexa 568 was applied at a dilution of 1:250 for 1 hour before coverslips were washed and mounted with DAKO mounting media with antifade. […]
# [4] = test system: BTIC 12 and BTIC 25 xenografts; test: In vivo phage homing, BTIC xenografts, anti-phage immunohistochemistry; parameters: species or system SCID mice; settings: phage perfused 10 minutes
# Description: (§5) Cells were injected into the right brain hemisphere of SCID mice and allowed to establish for three months. Mice were then perfused with 7A or A1 (random control) phage for 10 minutes. […] 7A homing was not observed in mice bearing tumors generated from the U251N cell line.
# (§6) 3×10^4 U87T cells, 3×10^5 U87R cells or 5×10^4 BTICs were injected in a 3 μL volume into one brain hemisphere of a SCID mouse and allowed to grow for 4, 6 or 12 weeks respectively. The mice were anaesthetized, then treated with 150 μL of 20% (w/v) mannitol for 15 minutes before injecting 5×10^9 pfu into the brain via the carotid. After allowing the phage to circulate for 10 minutes, unbound phage were flushed out of the circulatory system with 15 mL of PBS injected into the left ventricle after the right atrium was clipped. The brains were harvested, immediately frozen on dry ice and embedded in OCT for sectioning.
# (§7) Serial sections were fixed with cold acetone, and rehydrated through an ethanol gradient. Endogenous peroxidases in the sections were inactivated with 0.075% H2O2/methanol, and nonspecific binding was blocked with 10% normal goat serum in PBS. […] Avidin-biotin peroxidase complexes were then formed using the VECTASTAIN Elite ABC kit (Vector Laboratories) and detected by addition of […] […]
# [5] = test system: U251N human glioblastoma line xenografts; test: In vivo phage homing, U251N xenografts; parameters: species or system SCID mice; settings: phage perfused, anti-phage immunohistochemistry
# Description: as §5, §6, §7
# normal stem cells (NSC) = test: Staining with biotin-labeled synthetic peptide, confocal, normal stem cells; type: binding; settings: not tumorigenic cells
# Description: as §2, §3
# Suspended neurospheres: 50 μL of densely suspended neurospheres were stained as described above, except in suspension in an eppendorf tube. The stained neurospheres were mounted in a drop of DAKO mounting media under a coverslip.
# U87MG cells = test: Staining with biotin-labeled synthetic peptide, confocal, U87MG; type: binding, human
# Description: as §2, §3, §4
# [6] = test system: implanted GBM tumor from the U87MG cell line; test: In vivo targeting of fluorescent peptide to implanted U87MG tumor, fluorescence microscopy of brain sections; parameters: species or system mice
# Description: as §1
# FIGS. 18A and 18B-18D show similar views, where the animal was injected with a fluorescently labeled modified H10 peptide (SEQ ID NO: 17, preferential for HIGC binding), in animals carrying a tumor initiated with the U87MG human glioblastoma cell line. For these studies, the tumors were not grown as large, and a far-red fluorescent signal is not obvious from inspection without sectioning (FIG. 18A).
# FIGS. 19A and 19B and 19D show similar views, where the animal was injected with a fluorescently labeled modified E10 peptide (SEQ ID NO: 13, which binds to both BTIC's and HIGC's), in animals carrying a tumor initiated with the U87MG human glioblastoma cell line. […]
# U87R (HIGC) cells = test: Peptide binding to U87R cells; parameters: species or system human
# U87T (main tumor) cells = test: Peptide binding to U87T cells; parameters: species or system human
# [7] = test system: U87MG cells transfected with p75^NTR; test: Transwell migration assay, p75NTR-transfected U87MG; type: cell-based, human; settings: in vitro invasion assay
# Description: The membranes of 8 μm pore sized transwell inserts (Corning Costar) were coated with brain-like matrix (720 μL of 3 mg/mL collagen I (PureCol); 180 μL of 10×DMEM (Invitrogen); 9 uL of 1 mg/mL human plasma fibronectin (Sigma); 9 uL of 1 mg/mL chondroitin sulfate proteoglycans (Chemicon); 16 μL of 0.15 mg/mL laminin (Chemicon)) on both sides, allowed to dry, then plated with 5×10^4 cells in 100 μL media in the upper chamber and 500 μL media in the lower chamber. Inclusion of collagen was essential to see the inhibitory effect of H10 (FIG. S4). 3×10^10 pfu of test phage were added to the upper chambers containing the cells, which were incubated for 4 hours under normal culture conditions. At the end of the incubation, the media was aspirated and the cells were fixed and stained in 1% crystal violet in 95% ethanol for one minute. Transwells were rinsed in PBS, then cells on the upper membrane surfaces were removed with a cotton swab. Cells which had migrated to the undersurface of the membranes were counted by light microscopy, and the sum of cells in five microscopic fields was recorded for each membrane.
substance,measurement,setting,value
CIQLANPPRLXG [M23],number cell-binding phages containing that sequence,U87R cells,2/100
EHMALTYPFRPP (synthetic HIGC targeting peptide) [C12],number cell-binding phages containing that sequence,U87R cells,13/100
GISLSSYLQSTQ (synthetic HIGC targeting peptide) [M32],number cell-binding phages containing that sequence,U87R cells,20/100
GMSLSRQMLWSL (synthetic HIGC targeting peptide) [F2],number cell-binding phages containing that sequence,U87R cells,2/100
HLFPQSNYGGHS (synthetic HIGC targeting peptide) [M24],number cell-binding phages containing that sequence,U87R cells,2/100
HWAPSMYDYVSW (synthetic HIGC targeting peptide) [M5],number cell-binding phages containing that sequence,U87R cells,7/100
IRSIRMRRILIL (synthetic BTIC targeting peptide) [C1],number of phage subclones containing that sequence,[1],2/50
KTSMRPLILIHI (synthetic BTIC targeting peptide) [3B],distribution of fluorescent peptide signal in brain sections,[2]; intracarotid injection,binds to cells that are both within and outside the main tumor mass
same,localization of peptide conjugate in human GBM tissue in vivo (summary),[2],can localize in human GBM tissue in vivo
same,number of phage subclones containing that sequence,[1],2/50
PSPHRQRQHILR (synthetic BTIC targeting peptide) [7A],binding of peptide to BTICs,[3],high percentage of positive cells within the neurosphere
same,in vivo phage staining of BTIC xenografts,[4],only a subset of cells within the main tumor masses of BTIC 12 and 25 showed positive staining
same,in vivo phage staining of U251N xenografts,[5],no staining was detected
same,distribution of fluorescent peptide signal in brain sections,[2]; intracarotid injection,binds primarily to cells that are diffusely spread outside the main tumor mass
same,fluorescent signal in whole brain imaging of tumor,"[2]; intracarotid injection, approximately half an hour circulation, Olympus OV100","appears strongly in part of the tumor, but clearly does not detect all tumor cells present"
same,localization of peptide conjugate in human GBM tissue in vivo (summary),[2],can localize in human GBM tissue in vivo
same,binding of peptide to normal stem cells,normal stem cells (NSC),predominantly negative
same,binding of peptide to U87MG cells,U87MG cells,predominantly negative
same,number of phage subclones containing that sequence,[1],25/50
QTIRIIIRRSRT (synthetic BTIC targeting peptide) [10C],number of phage subclones containing that sequence,[1],6/50
RTVPDYTAHVRT (synthetic HIGC targeting peptide) [M43],number cell-binding phages containing that sequence,U87R cells,5/100
SGHQLLLNKMPN (synthetic HIGC targeting peptide) [M19],number cell-binding phages containing that sequence,U87R cells,4/100
SLHMRHKRKPRR (synthetic BTIC targeting peptide) [E10],binding of peptide to BTICs,[3],binds
same,distribution of fluorescent peptide signal in brain sections,[6]; intracarotid injection,binds to a portion of cells within the main tumor mass; also recorded: also binds to cells outside of the main tumor mass
same,localization of peptide conjugate in human GBM tissue in vivo (summary),[6]; intravenous administration,can localize in human GBM tissue in vivo
same,binding to U87R (HIGC) cells,U87R (HIGC) cells,bind
same,binding of peptide to U87MG cells,U87MG cells,binds
same,number of phage subclones containing that sequence,[1],4/50
same,binding to U87T (main tumor) cells,U87T (main tumor) cells,bind
SSRSMQRTLIIS (synthetic BTIC targeting peptide) [3F],distribution of fluorescent peptide signal in brain sections,[2]; intracarotid injection,most of the red signal appears outside of the main tumor mass
same,localization of peptide conjugate in human GBM tissue in vivo (summary),[2],can localize in human GBM tissue in vivo
same,number of phage subclones containing that sequence,[1],2/50
SVSVGMKPSPRP (synthetic HIGC targeting peptide) [A2],number cell-binding phages containing that sequence,U87R cells,21/100
methyl-β-cyclodextran,cell migration of U87p75 glioma cells,[7],significantly inhibited cell migration
